Data reported in PMC7997411, “Discovery and Optimization of Selective Inhibitors of Meprin α (Part II)” (Pharmaceuticals, 2021).
“And” between values parts separate entries of the source, which are not always exact repeats. Equal entries are not always repeated. Where two headings read alike, the source gives them in different places.

What was measured:
meprin α [1] = target: T1, meprin α (Homo sapiens, UniProt Q16819); test: Meprin α assay in a 384-well plate (fluorogenic substrate Mca-YVADAPK-K(Dnp)); type: biochemical
T1 construct: Strep-tag; made in house; host or cells: BTI-TN-5B1-4 insect cells (baculovirus, amplified in Sf9)
T1 sequence (Q16819 66-746): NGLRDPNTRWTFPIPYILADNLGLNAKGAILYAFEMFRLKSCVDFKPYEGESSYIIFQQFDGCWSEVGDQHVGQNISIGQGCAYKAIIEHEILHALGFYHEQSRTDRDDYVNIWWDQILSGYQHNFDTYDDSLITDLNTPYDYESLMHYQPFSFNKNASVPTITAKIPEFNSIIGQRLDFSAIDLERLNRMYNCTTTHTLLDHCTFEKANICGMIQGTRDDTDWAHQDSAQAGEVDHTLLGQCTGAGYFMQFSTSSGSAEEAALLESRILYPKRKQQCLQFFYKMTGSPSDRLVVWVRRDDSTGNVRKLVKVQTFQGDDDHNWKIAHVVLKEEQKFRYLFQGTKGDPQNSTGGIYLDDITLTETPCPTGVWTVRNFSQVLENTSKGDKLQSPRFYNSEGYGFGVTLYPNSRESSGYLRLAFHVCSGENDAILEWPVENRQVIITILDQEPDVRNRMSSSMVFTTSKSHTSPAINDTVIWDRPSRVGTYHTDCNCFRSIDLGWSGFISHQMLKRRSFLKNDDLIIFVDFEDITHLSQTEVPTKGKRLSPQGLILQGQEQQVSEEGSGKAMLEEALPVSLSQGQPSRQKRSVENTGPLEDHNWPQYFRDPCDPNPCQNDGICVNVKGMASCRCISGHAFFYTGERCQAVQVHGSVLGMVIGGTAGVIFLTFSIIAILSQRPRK
Procedure: (§1) Recombinant human meprin α and meprin β were expressed using the Bac-to-Bac expression system (Gibco Life Technologies, Paisley, UK) as described before. Media and supplements were obtained from Gibco Life Technologies. Recombinant Baculoviruses were amplified in adherently growing Spodoptera frugiperda (Sf)9 insect cells at 27 °C in Grace’s insect medium supplemented with 10% fetal bovine serum, 50 units/mL penicillin, and 50 μg/mL streptomycin. Protein expression was performed in 500 mL suspension cultures of BTI-TN-5B1-4 insect cells growing in Express Five SFM supplemented with 4 mM glutamine, 50 units/mL penicillin, and 50 μg/mL streptomycin in Fernbach-flasks using a Multitron orbital shaker (INFORS AG, Bottmingen, Switzerland). Cells were infected at a density of 2 × 10^6 cells/mL with an amplified viral stock at a MOI of ~10. […] Meprins were activated by trypsin, which was removed afterwards by affinity chromatography using a column containing immobilized chicken ovomucoid, a trypsin inhibitor.
(§2) Both assays followed the same general protocol. […] After 30 min incubation at RT, the reactions were started by addition of 5 µL of 2× solutions of substrates (20 µM, meprin α Mca-YVADAPK-K(Dnp), and for meprin β Mca-EDEDED-K(Dnp)).

human meprin β = target: T2, human meprin β (Homo sapiens, UniProt Q16820); test: Meprin β assay in a 384-well plate (fluorogenic substrate Mca-EDEDED-K(Dnp)); type: biochemical; settings: triplicate, ± SD
T2 construct: His-tag; made in house; host or cells: BTI-TN-5B1-4 insect cells (baculovirus, amplified in Sf9)
T2 sequence (Q16820 62-701): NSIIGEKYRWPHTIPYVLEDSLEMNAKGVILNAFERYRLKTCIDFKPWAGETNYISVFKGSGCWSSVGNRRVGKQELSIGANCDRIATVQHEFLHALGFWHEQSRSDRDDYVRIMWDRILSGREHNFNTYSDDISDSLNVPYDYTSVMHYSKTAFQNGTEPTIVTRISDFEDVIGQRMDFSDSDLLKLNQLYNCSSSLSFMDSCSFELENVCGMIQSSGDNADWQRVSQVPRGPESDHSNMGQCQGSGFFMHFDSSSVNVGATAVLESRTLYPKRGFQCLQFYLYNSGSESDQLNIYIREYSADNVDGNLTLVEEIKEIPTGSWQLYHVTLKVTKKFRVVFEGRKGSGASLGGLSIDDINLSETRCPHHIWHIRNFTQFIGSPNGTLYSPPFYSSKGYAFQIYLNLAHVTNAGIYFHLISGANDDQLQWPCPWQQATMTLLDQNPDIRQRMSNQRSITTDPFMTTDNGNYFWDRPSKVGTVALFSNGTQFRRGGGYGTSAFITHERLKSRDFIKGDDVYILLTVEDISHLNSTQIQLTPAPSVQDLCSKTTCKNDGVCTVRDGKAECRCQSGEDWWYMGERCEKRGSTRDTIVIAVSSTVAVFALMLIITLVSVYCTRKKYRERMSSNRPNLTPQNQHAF
Procedure: as §1, §2

[2] = test system: MMP-2, MMP-3, MMP-8, MMP-9, MMP-10, MMP-14, ADAM10, and ADAM17; test: Selectivity panel of related metzincins; type: biochemical; settings: meprin α vs MMP-2, MMP-3, MMP-8, MMP-9, MMP-10, MMP-14, ADAM10, ADAM17
Procedure: Both assays followed the same general protocol. 2.5 µL of 2× enzyme solution (20 nM) in assay buffer (10 mM HEPES, 0.001% Brij-35, pH 7.5) were added to solid bottom black 384 plates (Greiner, cat# 789075). Next, test compounds and pharmacological controls were added to corresponding wells using a 384-pin tool device (V&P Scientific, San Diego). After 30 min incubation at RT, the reactions were started by addition of 2.5 µL of 2× solutions of substrate (R&D Systems cat#: ES010, Mca-KPLGL-Dpa-AR-NH2, 20 µM). Reactions were incubated at RT for 2 h, after which the fluorescence was measured using a Perkin Elmer Viewlux multimode microplate imager (λexcitation = 324 nm, λemission = 393 nm). All compounds were tested in 10-point, 1:3 serial dilutions dose-response format starting with highest concentration of 100 µM. IC50 values were determined using non-linear regression analysis using the GraphPad Prism 8.0 suite of programs.
All assays followed the same general protocol. […] Reactions were incubated at RT for 1 h, after which the fluorescence was measured using the Synergy H4 multimode microplate reader (Biotek Instruments) (λexcitation = 324 nm, λemission = 390 nm). […] IC50 values were determined using non-linear regression analysis using the GraphPad Prism 8.0 suite of programs.

Meprin α [3] = settings: cited from earlier work; for meprin α/β fold selectivity ratio: meprin α over meprin β ref 8
Meprin β = settings: cited from earlier work
MMP2 = target: T3, MMP2 (Homo sapiens, UniProt P08253); settings: cited from earlier work
T3 construct: purchased R&D Systems 902-MP
T3 sequence (P08253 110-660): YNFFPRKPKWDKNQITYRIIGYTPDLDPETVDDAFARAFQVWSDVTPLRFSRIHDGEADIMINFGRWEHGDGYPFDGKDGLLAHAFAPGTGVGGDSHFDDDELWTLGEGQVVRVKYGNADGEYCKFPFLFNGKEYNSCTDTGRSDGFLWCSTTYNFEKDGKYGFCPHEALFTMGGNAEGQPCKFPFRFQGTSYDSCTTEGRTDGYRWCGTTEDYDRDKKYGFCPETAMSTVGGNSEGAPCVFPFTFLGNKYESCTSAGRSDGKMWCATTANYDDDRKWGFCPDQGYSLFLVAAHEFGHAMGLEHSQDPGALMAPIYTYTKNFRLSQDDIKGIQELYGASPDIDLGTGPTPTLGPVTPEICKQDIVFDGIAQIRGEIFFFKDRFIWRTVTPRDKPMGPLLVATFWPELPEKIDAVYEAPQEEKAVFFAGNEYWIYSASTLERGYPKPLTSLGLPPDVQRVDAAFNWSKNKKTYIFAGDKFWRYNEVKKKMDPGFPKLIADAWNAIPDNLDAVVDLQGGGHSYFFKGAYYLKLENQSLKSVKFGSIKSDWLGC

MMP9 = target: T4, MMP9 (Homo sapiens, UniProt P14780); settings: cited from earlier work
T4 construct: purchased R&D Systems 911-MP

MMP13 = target: T5, MMP13 (Homo sapiens, UniProt P45452); settings: cited from earlier work
T5 construct: purchased R&D Systems 511-MM

ADAM10 = target: T6, ADAM10 (Homo sapiens, UniProt O14672); settings: cited from earlier work
T6 construct: purchased R&D Systems 936-AD
T6 sequence (O14672 214-748): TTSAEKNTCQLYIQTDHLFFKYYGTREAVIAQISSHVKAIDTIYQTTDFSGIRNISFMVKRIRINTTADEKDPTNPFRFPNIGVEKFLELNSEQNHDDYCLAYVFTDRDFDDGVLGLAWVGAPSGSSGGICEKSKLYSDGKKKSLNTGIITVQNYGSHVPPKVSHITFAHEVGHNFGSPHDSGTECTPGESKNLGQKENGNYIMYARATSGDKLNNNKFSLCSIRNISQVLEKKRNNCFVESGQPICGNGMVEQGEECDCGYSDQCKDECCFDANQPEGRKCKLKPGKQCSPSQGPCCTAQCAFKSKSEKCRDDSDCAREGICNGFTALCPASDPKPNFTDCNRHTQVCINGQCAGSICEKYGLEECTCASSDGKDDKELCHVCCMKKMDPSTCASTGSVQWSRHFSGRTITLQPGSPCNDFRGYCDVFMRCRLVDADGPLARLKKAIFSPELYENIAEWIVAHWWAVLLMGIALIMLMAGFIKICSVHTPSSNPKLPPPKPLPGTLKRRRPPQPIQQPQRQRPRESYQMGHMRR

ADAM17 = target: T7, ADAM17 (Homo sapiens, UniProt P78536); settings: cited from earlier work
T7 construct: purchased R&D Systems 930-ADB

[4] = single value given, at 10 μM ref 11

T7 sequence (P78536 215-824): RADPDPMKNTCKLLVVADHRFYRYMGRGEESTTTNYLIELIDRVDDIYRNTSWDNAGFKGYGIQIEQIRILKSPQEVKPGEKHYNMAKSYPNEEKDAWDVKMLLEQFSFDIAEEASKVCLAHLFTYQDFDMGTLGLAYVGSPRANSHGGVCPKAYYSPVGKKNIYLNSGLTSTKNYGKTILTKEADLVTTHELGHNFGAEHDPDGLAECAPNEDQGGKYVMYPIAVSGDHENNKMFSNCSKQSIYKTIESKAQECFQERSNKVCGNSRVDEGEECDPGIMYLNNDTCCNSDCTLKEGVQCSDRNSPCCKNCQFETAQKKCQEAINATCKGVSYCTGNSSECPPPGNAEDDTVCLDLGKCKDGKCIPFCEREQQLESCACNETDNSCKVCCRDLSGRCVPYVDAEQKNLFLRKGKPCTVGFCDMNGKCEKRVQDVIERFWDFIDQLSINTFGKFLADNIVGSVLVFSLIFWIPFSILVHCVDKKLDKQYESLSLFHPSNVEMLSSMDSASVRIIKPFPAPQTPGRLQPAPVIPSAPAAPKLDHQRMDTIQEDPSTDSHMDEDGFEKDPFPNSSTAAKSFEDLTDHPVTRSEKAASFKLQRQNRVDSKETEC
T4 sequence (P14780 94-707): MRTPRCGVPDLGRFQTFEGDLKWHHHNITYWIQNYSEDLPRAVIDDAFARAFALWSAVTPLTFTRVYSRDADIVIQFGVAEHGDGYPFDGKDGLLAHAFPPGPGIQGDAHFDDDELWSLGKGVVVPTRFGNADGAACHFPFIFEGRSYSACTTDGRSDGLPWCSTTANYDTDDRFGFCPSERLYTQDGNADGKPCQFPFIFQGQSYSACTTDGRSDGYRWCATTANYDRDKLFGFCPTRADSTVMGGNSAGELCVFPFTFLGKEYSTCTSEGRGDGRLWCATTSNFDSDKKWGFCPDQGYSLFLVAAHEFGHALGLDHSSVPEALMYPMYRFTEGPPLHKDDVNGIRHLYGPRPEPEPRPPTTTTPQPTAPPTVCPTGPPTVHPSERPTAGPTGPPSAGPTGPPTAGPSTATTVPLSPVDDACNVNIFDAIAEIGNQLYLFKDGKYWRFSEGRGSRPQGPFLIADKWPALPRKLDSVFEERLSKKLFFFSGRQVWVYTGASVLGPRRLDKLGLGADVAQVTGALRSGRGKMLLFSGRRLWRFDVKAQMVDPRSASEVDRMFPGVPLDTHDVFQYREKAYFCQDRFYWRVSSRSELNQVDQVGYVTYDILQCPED

| SMILES | IC50 (Meprin α [3]) [nM] | meprin α/β fold selectivity ratio (Meprin α [3]) [fold] | IC50 (Meprin β) [nM] | MMP2 % activity remaining (MMP2; at 10 μM (top) ref 8) [%] | MMP2 % activity remaining (MMP2; at 200 μM (bottom) ref 8) [%] | MMP9 % activity remaining (MMP9; at 10 μM (top) ref 8) [%] | MMP9 % activity remaining (MMP9; at 200 μM (bottom) ref 8) [%] | MMP13 % activity remaining (MMP13; at 10 μM (top) ref 8) [%] | MMP13 % activity remaining (MMP13; at 200 μM (bottom) ref 8) [%] | ADAM10 % activity remaining (ADAM10; at 10 μM (top) ref 8) [%] | ADAM10 % activity remaining (ADAM10; at 200 μM (bottom) ref 8) [%] | ADAM17 % activity remaining (ADAM17; at 10 μM (top) ref 8) [%] | ADAM17 % activity remaining (ADAM17; at 200 μM (bottom) ref 8) [%] | MMP2 % activity remaining (MMP2; [4]) [%] | MMP9 % activity remaining (MMP9; [4]) [%] | MMP13 % activity remaining (MMP13; [4]) [%] | ADAM10 % activity remaining (ADAM10; [4]) [%] | ADAM17 % activity remaining (ADAM17; [4]) [%] | other results |
| --- | --- | --- | --- | --- | --- | --- | --- | --- | --- | --- | --- | --- | --- | --- | --- | --- | --- | --- | --- |
| COc1ccc(-n2c(CSc3ncccn3)nnc2SCC(=O)NO)cc1 [SR19855, N-hydroxy-2-((4-(4-methoxyphenyl)-5-((pyrimidin-2-ylthio)methyl)-4H-1,2,4-triazol-3-yl)thio)acetamide] | – | – | – | – | – | – | – | – | – | – | – | – | – | – | – | – | – | – | meprin α/β selectivity (in words) (meprin α [1]; Figure 1): moderate meprin α/β selectivity; meprin α/β fold selectivity (ratio of IC50 values) (meprin α [1]; meprin α over meprin β): ~ 13 fold and 13 fold; IC50 (meprin α [1]; triplicate, ± SD): 1300 ± 100 nM; Meprin α IC50 (meprin α [1]; triplicate, ± SD): low-micromolar; IC50 (human meprin β): 17000 ± 3000 nM; selectivity over a larger panel of metzincins [2]: at least 10 fold |
| O=C(CN(Cc1ccc2c(c1)OCCO2)Cc1ccc2c(c1)OCCO2)NO [10e] | 400 ± 30 | 19 | 7590 ± 10 | 94 | 65 | 91 | 21 | 98 | 47 | 80 | 56 | 80 | 41 | – | – | – | – | – | – |
| O=C(Cc1c(-c2ccccc2)noc1-c1ccccc1)NO [2c] | 4 ± 1 | – | 813 ± 1 | – | – | – | – | – | – | – | – | – | – | 87 | 86 | 80 | 80 | 62 | – |
| O=C(Cc1c(-c2ccccc2)n[nH]c1-c1ccccc1)NO [2e] | 3 ± 1 | – | 199 ± 1 | – | – | – | – | – | – | – | – | – | – | 104 | 81 | 75 | 73 | 61 | – |
| O=C(CN(Cc1ccc2c(c1)OCO2)Cc1ccc2c(c1)OCO2)NO [10d] | 160 ± 1 | 18 | 2950 ± 350 | 95 | 26 | 91 | 61 | 86 | 55 | 86 | 61 | 86 | 57 | – | – | – | – | – | – |
